≈ marks a conversion by molar mass, not a printed value. Calls of active or inactive are those of the source. No cut-off for these calls is given here.
Tests used:
Type in all cases: functional
Micrococcus luteus = assay: Antibacterial activity against Micrococcus luteus ATCC 4698 after 18 to 24 hrs; details: NCTC 2665
Staphylococcus aureus [1] = assay: Antibacterial activity against methicillin-resistant Staphylococcus aureus N315 after 18 to 24 hrs
Staphylococcus aureus [2] = assay: Antibacterial activity against Staphylococcus aureus ATCC 25923 after 18 to 24 hrs
Bacillus spizizenii = assay: Antibacterial activity against Bacillus subtilis ATCC 6633 after 18 to 24 hrs
Pseudomonas aeruginosa = assay: Antibacterial activity against Pseudomonas aeruginosa ATCC 9027 after 18 to 24 hrs
Escherichia coli = assay: Antibacterial activity against Escherichia coli ATCC 25922 after 18 to 24 hrs
[3] = (§1) Antibacterial activity against Eberthella typhosa ATCC 14028 after 18 to 24 hrs
Bacillus = assay: Antibacterial activity against Bacillus proteus ATCC 13315 after 18 to 24 hrs
Eberthella typhosa = assay: as §1

Row | Compound | MIC (Micrococcus luteus) | MIC (Staphylococcus aureus [1]) | MIC (Staphylococcus aureus [2]) | MIC (Bacillus spizizenii) | MIC (Pseudomonas aeruginosa) | MIC (Escherichia coli) | MIC [3] [mg/L] | MIC (Bacillus) | MIC (Eberthella typhosa)
1 | CCn1cc(-c2csc(N)n2)c(=O)c2cc(N3CCCCC3)c(Cl)cc21 | 49 mg/L (≈ 126 µM) | 24.6 mg/L (≈ 63.3 µM) | 61.2 mg/L (≈ 157 µM) | 19.6 mg/L (≈ 50.4 µM) | 34.4 mg/L (≈ 88.4 µM) | 118 mg/L (≈ 303 µM) | 17.2 (≈ 44.2 µM) | 34.4 mg/L (≈ 88.4 µM) | –
2 | CCn1cc(-c2csc(N)n2)c(=O)c2cc(F)cc(F)c21 | 256 mg/L (≈ 833 µM) | inactive | inactive | inactive | inactive | 64 mg/L (≈ 208 µM) | – | inactive | inactive
3 | CCn1cc(-c2csc(N)n2)c(=O)c2cc(N3CCN(C(=O)OC(C)(C)C)CC3)c(Cl)cc21 | 53.2 mg/L (≈ 109 µM) | 32 mg/L (≈ 65.3 µM) | 128 mg/L (≈ 261 µM) | 21.3 mg/L (≈ 43.5 µM) | 8 mg/L (≈ 16.3 µM) | 10.7 mg/L (≈ 21.8 µM) | – | 32 mg/L (≈ 65.3 µM) | inactive
4 | CCn1cc(C(C)=O)c(=O)c2cc(F)c(N3CCCCC3)cc21 | 10.1 mg/L (≈ 31.9 µM) | 17.8 mg/L (≈ 56.3 µM) | 8.9 mg/L (≈ 28.1 µM) | 12.7 mg/L (≈ 40.1 µM) | 22.8 mg/L (≈ 72.1 µM) | 40.6 mg/L (≈ 128 µM) | 121 (≈ 383 µM) | 20.3 mg/L (≈ 64.2 µM) | –
5 | O=C(N[C@H](CO)[C@H](O)c1ccc([N+](=O)[O-])cc1)C(Cl)Cl [CHLORAMPHENICOL] | 13.3 mg/L (≈ 41.2 µM) | 21.3 mg/L (≈ 65.9 µM) | 16 mg/L (≈ 49.5 µM) | 26.6 mg/L (≈ 82.3 µM) | 32 mg/L (≈ 99 µM) | 13.8 mg/L (≈ 42.7 µM) | 26.6 (≈ 82.3 µM) | 32 mg/L (≈ 99 µM) | –
6 | CCn1cc(-c2csc(N)n2)c(=O)c2cc(F)ccc21 | 18.7 mg/L (≈ 64.6 µM) | inactive | 128 mg/L (≈ 442 µM) | 3.3 mg/L (≈ 11.4 µM) | 13.3 mg/L (≈ 46 µM) | 24 mg/L (≈ 82.9 µM) | 21.3 (≈ 73.6 µM) | 10.7 mg/L (≈ 37 µM) | –
7 | CCn1cc(C(C)=O)c(=O)c2cc(F)c(N3CCCC3)cc21 | 244 mg/L (≈ 808 µM) | 50.9 mg/L (≈ 168 µM) | 5.1 mg/L (≈ 16.9 µM) | 244 mg/L (≈ 809 µM) | 12.7 mg/L (≈ 42 µM) | 43.3 mg/L (≈ 143 µM) | 122 (≈ 404 µM) | 33.1 mg/L (≈ 109 µM) | –
8 | CCn1cc(-c2csc(N)n2)c(=O)c2cccc(F)c21 | 2.7 mg/L (≈ 9.33 µM) | inactive | inactive | 13.3 mg/L (≈ 46 µM) | 24 mg/L (≈ 82.9 µM) | 9.3 mg/L (≈ 32.1 µM) | – | 256 mg/L (≈ 885 µM) | inactive
9 | CCn1cc(-c2csc(N)n2)c(=O)c2cc(F)c(Cl)cc21 | 26.6 mg/L (≈ 82.2 µM) | 8 mg/L (≈ 24.7 µM) | inactive | 10.6 mg/L (≈ 32.7 µM) | 1.6 mg/L (≈ 4.94 µM) | 6.7 mg/L (≈ 20.7 µM) | 2.6 (≈ 8.03 µM) | 3.3 mg/L (≈ 10.2 µM) | –
10 | CCn1cc(-c2csc(N)n2)c(=O)c2ccc(C(F)(F)F)cc21 | inactive | 53.2 mg/L (≈ 157 µM) | 128 mg/L (≈ 377 µM) | 63.9 mg/L (≈ 188 µM) | 13.3 mg/L (≈ 39.2 µM) | 5.3 mg/L (≈ 15.6 µM) | 1.7 (≈ 5.01 µM) | 13.3 mg/L (≈ 39.2 µM) | –
11 | CCn1cc(C(C)=O)c(=O)c2cc(N3CCCCC3)c(Cl)cc21 | 37.3 mg/L (≈ 112 µM) | 128 mg/L (≈ 385 µM) | 37.3 mg/L (≈ 112 µM) | 35.4 mg/L (≈ 106 µM) | 42.7 mg/L (≈ 128 µM) | 13.3 mg/L (≈ 40 µM) | – | 171 mg/L (≈ 513 µM) | inactive
12 | CCn1cc(-c2csc(N)n2)c(=O)c2cc(Cl)cc(Cl)c21 | 16 mg/L (≈ 47 µM) | inactive | 3 mg/L (≈ 8.82 µM) | 2.7 mg/L (≈ 7.94 µM) | 2.3 mg/L (≈ 6.76 µM) | 21.2 mg/L (≈ 62.3 µM) | 2.7 (≈ 7.94 µM) | 3.3 mg/L (≈ 9.7 µM) | –
13 | CCn1cc(-c2csc(N)n2)c(=O)c2cc(N3CCNCC3)c(Cl)cc21 | 32 mg/L (≈ 82.1 µM) | inactive | 8 mg/L (≈ 20.5 µM) | 2 mg/L (≈ 5.13 µM) | 10.7 mg/L (≈ 27.4 µM) | 128 mg/L (≈ 328 µM) | 8 (≈ 20.5 µM) | 6.4 mg/L (≈ 16.4 µM) | –
14 | CCn1cc(-c2csc(N)n2)c(=O)c2cc(F)c(N3CCNCC3)cc21 | 64.2 mg/L (≈ 172 µM) | 32.1 mg/L (≈ 86 µM) | 16 mg/L (≈ 42.8 µM) | 10.7 mg/L (≈ 28.7 µM) | 4 mg/L (≈ 10.7 µM) | 16 mg/L (≈ 42.8 µM) | 10.7 (≈ 28.7 µM) | 2 mg/L (≈ 5.36 µM) | –
15 | CCn1cc(-c2csc(N)n2)c(=O)c2cc(F)c(N3CCOCC3)cc21 | 13.3 mg/L (≈ 35.5 µM) | 32 mg/L (≈ 85.5 µM) | 0.8 mg/L (≈ 2.14 µM) | 18.7 mg/L (≈ 49.9 µM) | 10.7 mg/L (≈ 28.6 µM) | 6 mg/L (≈ 16 µM) | 14.7 (≈ 39.3 µM) | 1.7 mg/L (≈ 4.54 µM) | –
16 | CCn1cc(-c2csc(N)n2)c(=O)c2cc(F)c(N3CCN(C(=O)OC(C)(C)C)CC3)cc21 | 32 mg/L (≈ 67.6 µM) | 10.7 mg/L (≈ 22.6 µM) | 64 mg/L (≈ 135 µM) | 42.7 mg/L (≈ 90.2 µM) | 8 mg/L (≈ 16.9 µM) | 10.7 mg/L (≈ 22.6 µM) | 5.3 (≈ 11.2 µM) | 2.6 mg/L (≈ 5.49 µM) | –
17 | CCn1cc(-c2csc(N)n2)c(=O)c2cc(F)c(N3CCCC3)cc21 | 107 mg/L (≈ 298 µM) | 17.3 mg/L (≈ 48.3 µM) | 32 mg/L (≈ 89.3 µM) | 53.3 mg/L (≈ 149 µM) | 42.7 mg/L (≈ 119 µM) | 9.3 mg/L (≈ 25.9 µM) | 42.7 (≈ 119 µM) | 128 mg/L (≈ 357 µM) | –
18 | CCn1cc(-c2csc(N)n2)c(=O)c2cc(F)c(N3CCCCC3)cc21 | inactive | 53.3 mg/L (≈ 143 µM) | 64 mg/L (≈ 172 µM) | 42.7 mg/L (≈ 115 µM) | 42.7 mg/L (≈ 115 µM) | 128 mg/L (≈ 344 µM) | 74.7 (≈ 201 µM) | 37.3 mg/L (≈ 100 µM) | –
19 | CCn1cc(-c2csc(N)n2)c(=O)c2cc(C)ccc21 | 5.4 mg/L (≈ 18.9 µM) | 129 mg/L (≈ 451 µM) | 2.4 mg/L (≈ 8.41 µM) | 64.4 mg/L (≈ 226 µM) | 2.7 mg/L (≈ 9.46 µM) | 4.7 mg/L (≈ 16.5 µM) | 24.1 (≈ 84.5 µM) | 0.8 mg/L (≈ 2.8 µM) | –
20 | CCn1cc(-c2csc(N)n2)c(=O)c2cc(OC)ccc21 | 42.7 mg/L (≈ 142 µM) | 256 mg/L (≈ 849 µM) | 18.8 mg/L (≈ 62.4 µM) | 10.7 mg/L (≈ 35.5 µM) | 21.3 mg/L (≈ 70.7 µM) | 13.3 mg/L (≈ 44.1 µM) | 8 (≈ 26.5 µM) | 2.7 mg/L (≈ 8.96 µM) | –
21 | CCn1cc(C(C)=O)c(=O)c2cc(N3CCCC3)c(Cl)cc21 | 10.7 mg/L (≈ 33.6 µM) | 16 mg/L (≈ 50.2 µM) | 18.7 mg/L (≈ 58.7 µM) | 10.7 mg/L (≈ 33.6 µM) | 9.3 mg/L (≈ 29.2 µM) | 26.7 mg/L (≈ 83.8 µM) | 18.7 (≈ 58.7 µM) | 64 mg/L (≈ 201 µM) | –
22 | CCn1cc(C(C)=O)c(=O)c2cc(N3CCOCC3)c(Cl)cc21 | 53.3 mg/L (≈ 159 µM) | 128 mg/L (≈ 382 µM) | inactive | inactive | 42.7 mg/L (≈ 128 µM) | inactive | 37.3 (≈ 111 µM) | 13.3 mg/L (≈ 39.7 µM) | –
23 | CCn1cc(C(C)=O)c(=O)c2cc(F)c(N3CCOCC3)cc21 | 128 mg/L (≈ 402 µM) | 256 mg/L (≈ 804 µM) | 53.3 mg/L (≈ 167 µM) | inactive | 256 mg/L (≈ 804 µM) | 256 mg/L (≈ 804 µM) | 2.3 (≈ 7.22 µM) | 2.7 mg/L (≈ 8.48 µM) | –
24 | CCn1cc(-c2csc(N)n2)c(=O)c2cc(N3CCOCC3)c(Cl)cc21 | 128 mg/L (≈ 327 µM) | 255 mg/L (≈ 653 µM) | 0.8 mg/L (≈ 2.05 µM) | 255 mg/L (≈ 653 µM) | 170 mg/L (≈ 435 µM) | 128 mg/L (≈ 327 µM) | 95.7 (≈ 245 µM) | inactive | –
25 | CCn1cc(C(C)=O)c(=O)c2cc(F)c(N3CCN(C(=O)OC(C)(C)C)CC3)cc21 | inactive | 64 mg/L (≈ 153 µM) | 16 mg/L (≈ 38.3 µM) | 21.3 mg/L (≈ 51 µM) | inactive | 128 mg/L (≈ 307 µM) | 42.7 (≈ 102 µM) | 16 mg/L (≈ 38.3 µM) | –

Source: ChEMBL document CHEMBL3822423 (J Med Chem, 2016)
